Legend:
Surinam grass = assay: Test C pre-/postemergence herbicide test; assay type: in vivo, Urochloa decumbens
Method in brief: (§1)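 Visual injury scores run from 0 (no effect) to 100 (complete control), assessed relative to untreated controls 12 to 14 days after treatment in the greenhouse. Chemicals were formulated in a non-phytotoxic solvent mixture with surfactant and applied to soil after planting or to emerged plants at the 1- to 4-leaf stage.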

cocklebur = assay: Test B pre-/postemergence herbicide test; assay type: in vivo, Xanthium strumarium; settings: for Plant response rating (0 to 100 scale), Cocklebur: 0 is no effect
Method in brief: (§2)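 Evaluation is visual, comparing treated with control plants on a scale where 0 means no effect and 100 means full control. Treatments were preemergence, or postemergence on seedlings 2–18 cm tall, and held 13–15 days in the greenhouse.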

barnyardgrass = assay: Test B pre-/postemergence herbicide test; assay type: in vivo, Echinochloa crus-galli; settings: for Plant response rating (0 to 100 scale), Barnyardgrass: 0 is no effect
Method in brief: as §2

morningglory = assay: Test C pre-/postemergence herbicide test; assay type: in vivo, Ipomoea coccinea; design: key to Plant response rating, Morningglory: 0 = no effect, 100 = complete control
Method in brief: as §1

redroot pigweed = assay: Test A pre-/postemergence herbicide test; assay type: in vivo, Amaranthus retroflexus
Method in brief: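 Pre: seeded sandy loam, directed soil spray, compound in non-phytotoxic solvent + surfactant. Post: 1–2-leaf plants (2–10 cm), sprayed to runoff. Greenhouse ~10 d; visual injury vs untreated, 0–100 scale.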

bermudagrass = assay: Test C pre-/postemergence herbicide test; assay type: in vivo, Cynodon dactylon
Method in brief: as §1

pigweed = assay: Test C pre-/postemergence herbicide test; assay type: in vivo, Amaranthus retroflexus
Method in brief: as §1

[1] = 62 g ai/ha, preemergence, scale 0 to 100
[2] = 250 g ai/ha, scale 0-100, preemergence
[3] = 500 g ai/ha, scale 0 to 100 (0 no effect, 100 complete control), visual, 12 to 14 days, preemergence
[4] = 125 g ai/ha, 0 = no effect, 100 = complete control, preemergence
[5] = 500 g ai/ha, visual rating, 0 = no effect, 100 = complete control, preemergence
[6] = postemergence, 125 g ai/ha, visual rating, scale 0 (no effect) to 100 (complete control)
[7] = postemergence, 500 g ai/ha, scale 0 to 100, 0 is no effect, 100 is complete control
[8] = 125 g ai/ha, scale 0 (no effect) to 100 (complete control), visual, 12 to 14 days, preemergence
[9] = 62 g ai/ha, preemergence, scale 0 to 100, 0 no effect, 100 complete control
[10] = Preemergence, 500 g ai/ha, scale 0 to 100, 0 no effect, 100 complete control
[11] = 250 g ai/ha, scale 0 to 100 (0 no effect, 100 complete control), visual, 12 to 14 days, preemergence
[12] = Postemergence, 500 g ai/ha, scale 0 to 100
[13] = Postemergence, 250 g ai/ha, scale 0 to 100, 0 no effect, 100 complete control
[14] = postemergence, 125 g ai/ha, scale 0 to 100
[15] = postemergence, 62 g ai/ha, scale 0 to 100
[16] = Postemergence, 125 g ai/ha, scale 0 (no effect) to 100 (complete control)
[17] = Postemergence, 500 g ai/ha, visual rating after 13 to 15 days, scale 0 (no effect) to 100 (complete control)
[18] = Preemergence, 500 g ai/ha, scale 0 to 100
[19] = 125 g ai/ha, 100 is complete control, preemergence
[20] = 125 g ai/ha, visual rating, scale 0 (no effect) to 100 (complete control), postemergence
[21] = Postemergence, 500 g ai/ha, scale 0 (no effect) to 100 (complete control)

CCNC(=O)c1ccc(F)c(NC(=O)C2CC(C(C)(C)C)=NN2CC)c1 (racemic) [Compound 269]
Plant response rating, Surinam Grass (Surinam grass; [1]): 5
Plant response rating, Surinam Grass (Surinam grass; [2]): 85
Plant response rating, Surinam Grass (Surinam grass; [3]): 95
Cocklebur plant response rating (0 to 100 scale) (cocklebur; [4]): 20
Plant response rating, Cocklebur (cocklebur; [5]): 70
Cocklebur plant response rating (cocklebur; [6]): 20
Cocklebur plant response rating (cocklebur; [7]): 50
Barnyardgrass plant response rating (0 to 100 scale) (barnyardgrass; [4]): 80
Plant response rating, Barnyardgrass (barnyardgrass; [5]): 100
Barnyardgrass plant response rating (barnyardgrass; [6]): 10
Barnyardgrass plant response rating (barnyardgrass; [7]): 30
Plant response rating, Morningglory (morningglory; [1]): 0
Plant response rating, Morningglory (morningglory; [8]): 5
Plant response rating, Morningglory (morningglory; [2]): 10
Plant response rating, Morningglory (morningglory; [3]): 40
Pigweed plant response rating (redroot pigweed; Postemergence, 500 g ai/ha, 0 to 100 scale, 0 no effect, 100 complete control): 35
Plant response rating, Pigweed (redroot pigweed; Postemergence, 2000 g ai/ha, 0 to 100 scale, 0 no effect, 100 complete control): 50
Pigweed plant response rating (redroot pigweed; Preemergence, 2000 g ai/ha, visual rating, 0 to 100 scale (0 no effect, 100 complete control)): 100
Pigweed plant response rating (redroot pigweed; preemergence, 500 g ai/ha, visual injury, 0 to 100 scale (0 no effect, 100 complete control)): 100
Plant response rating, Bermudagrass (bermudagrass; [9]): 100
Plant response rating, Bermudagrass (bermudagrass; [8]): 100
Plant response rating, Bermudagrass (bermudagrass; [2]): 100
Bermudagrass plant response rating (bermudagrass; [10]): 100
Plant response rating, Pigweed (pigweed; [1]): 100
Plant response rating, Pigweed (pigweed; [8]): 100
Plant response rating, Pigweed (pigweed; [2]): 100
Plant response rating, Pigweed (pigweed; [3]): 100

CCNC(=O)c1cccc(NC(=O)c2cc(C(C)(C)C)nn2CC(F)(F)F)c1 [Compound 31]
Plant response rating (0 = no effect, 100 = complete control), Surinam Grass (Surinam grass; 62 g ai/ha, preemergence): 10
Plant response rating, Surinam Grass (Surinam grass; [11]): 30
Surinam Grass plant response rating (Surinam grass; [12]): 50
Plant response rating, Surinam Grass (Surinam grass; [13]): 50
Surinam Grass plant response rating (Surinam grass; [10]): 60
Plant response rating, Surinam Grass (Surinam grass; [14]): 40
Plant response rating, Surinam Grass (Surinam grass; [15]): 30
Cocklebur plant response rating (cocklebur; [16]): 80
Plant response rating, Cocklebur (cocklebur; [17]): 90
Cocklebur plant response rating (cocklebur; [18]): 40
Barnyardgrass plant response rating (barnyardgrass; [16]): 10
Plant response rating, Barnyardgrass (barnyardgrass; [17]): 50
Barnyardgrass plant response rating (barnyardgrass; [18]): 90
Morningglory plant response rating (morningglory; [12]): 70
Plant response rating, Morningglory (morningglory; [13]): 60
Morningglory plant response rating (morningglory; [10]): 40
Plant response rating, Morningglory (morningglory; [14]): 50
Plant response rating, Morningglory (morningglory; [15]): 50
Pigweed plant response rating (redroot pigweed; Postemergence, 250 g ai/ha, 0 to 100 scale, 0 no effect, 100 complete control): 55
Plant response rating, Pigweed (redroot pigweed; Postemergence, 1000 g ai/ha, 0 to 100 scale, 0 no effect, 100 complete control): 80
Pigweed plant response rating (redroot pigweed; Preemergence, 1000 g ai/ha, visual rating, 0 to 100 scale (0 no effect, 100 complete control)): 80
Pigweed plant response rating (redroot pigweed; preemergence, 250 g ai/ha, visual injury, 0 to 100 scale (0 no effect, 100 complete control)): 45
Plant response rating (0 = no effect, 100 = complete control), Bermudagrass (bermudagrass; 62 g ai/ha, preemergence): 20
Plant response rating, Bermudagrass (bermudagrass; 125 g ai/ha, scale 0-100, preemergence): 90
Plant response rating, Bermudagrass (bermudagrass; [11]): 100
Bermudagrass plant response rating (bermudagrass; [12]): 40
Plant response rating, Bermudagrass (bermudagrass; Postemergence, 125 g ai/ha, scale 0 to 100, 0 no effect, 100 complete control): 20
Bermudagrass plant response rating (bermudagrass; Postemergence, 250 g ai/ha, scale 0 to 100): 20
Bermudagrass plant response rating (bermudagrass; [10]): 100
Plant response rating, Bermudagrass (bermudagrass; [15]): 10
Plant response rating (0 = no effect, 100 = complete control), Pigweed (pigweed; 62 g ai/ha, preemergence): 100
Plant response rating, Pigweed (pigweed; [11]): 100
Pigweed plant response rating (pigweed; [12]): 100
Plant response rating, Pigweed (pigweed; [13]): 100
Pigweed plant response rating (pigweed; [10]): 100
Plant response rating, Pigweed (pigweed; [14]): 90
Plant response rating, Pigweed (pigweed; [15]): 90

CCc1nn(C(C)C)nc1C(=O)Nc1cccc(C(=O)N(C)CC)c1 [Compound 386]
Plant response rating, Surinam Grass (Surinam grass; [1]): 80
Plant response rating (0 = no effect, 100 = complete control), Surinam Grass (Surinam grass; 125 g ai/ha, preemergence): 80
Plant response rating, Surinam Grass (Surinam grass; [2]): 95
Plant response rating, Surinam Grass (Surinam grass; [3]): 95
Plant response rating (0 to 100 scale), Cocklebur (cocklebur; [19]): 20
Cocklebur plant response rating (cocklebur; [20]): 40
Cocklebur plant response rating (cocklebur; [7]): 50
Plant response rating (0 to 100 scale), Barnyardgrass (barnyardgrass; [19]): 90
Barnyardgrass plant response rating (barnyardgrass; [20]): 0
Barnyardgrass plant response rating (barnyardgrass; [7]): 10
Plant response rating, Morningglory (morningglory; [1]): 55
Plant response rating (0 = no effect, 100 = complete control), Morningglory (morningglory; 125 g ai/ha, preemergence): 95
Plant response rating, Morningglory (morningglory; [2]): 100
Plant response rating, Morningglory (morningglory; [3]): 100
Plant response rating, Bermudagrass (bermudagrass; [9]): 90
Plant response rating (0 = no effect, 100 = complete control), Bermudagrass (bermudagrass; 125 g ai/ha, preemergence): 95
Plant response rating, Bermudagrass (bermudagrass; [2]): 95
Plant response rating, Bermudagrass (bermudagrass; [3]): 95
Plant response rating, Pigweed (pigweed; [1]): 100
Plant response rating (0 = no effect, 100 = complete control), Pigweed (pigweed; 125 g ai/ha, preemergence): 100
Plant response rating, Pigweed (pigweed; [2]): 100
Plant response rating, Pigweed (pigweed; [3]): 100

CCc1nn(C(C)C)nc1C(=O)Nc1cccc(C(=S)N(C)C)c1 [Compound 409]
Plant response rating, Surinam Grass (Surinam grass; [1]): 50
Plant response rating (0 = no effect, 100 = complete control), Surinam Grass (Surinam grass; 125 g ai/ha, preemergence): 85
Plant response rating, Surinam Grass (Surinam grass; [3]): 95
Plant response rating (0 to 100 scale), Cocklebur (cocklebur; [19]): 10
Cocklebur plant response rating (cocklebur; [21]): 10
Cocklebur plant response rating (cocklebur; [14]): 0
Plant response rating (0 to 100 scale), Barnyardgrass (barnyardgrass; [19]): 90
Barnyardgrass plant response rating (barnyardgrass; [16]): 0
Barnyardgrass plant response rating (barnyardgrass; [21]): 0
Plant response rating, Morningglory (morningglory; [1]): 10
Plant response rating (0 = no effect, 100 = complete control), Morningglory (morningglory; 125 g ai/ha, preemergence): 40
Plant response rating, Morningglory (morningglory; [3]): 100
Plant response rating, Bermudagrass (bermudagrass; [9]): 40
Plant response rating (0 = no effect, 100 = complete control), Bermudagrass (bermudagrass; 125 g ai/ha, preemergence): 50
Plant response rating, Bermudagrass (bermudagrass; [2]): 85
Plant response rating, Bermudagrass (bermudagrass; [3]): 85
Plant response rating, Pigweed (pigweed; [1]): 100
Plant response rating, Pigweed (pigweed; [3]): 100

Cc1nn(C(C)(C)C)nc1C(=O)Nc1cccc(C(=S)N(C)C)c1 [Compound 419]
Plant response rating, Surinam Grass (Surinam grass; [1]): 0
Plant response rating (0 = no effect, 100 = complete control), Surinam Grass (Surinam grass; 125 g ai/ha, preemergence): 45
Plant response rating, Surinam Grass (Surinam grass; [3]): 100
Plant response rating (0 to 100 scale), Cocklebur (cocklebur; [19]): 30
Cocklebur plant response rating (cocklebur; [21]): 40
Cocklebur plant response rating (cocklebur; [14]): 20
Plant response rating (0 to 100 scale), Barnyardgrass (barnyardgrass; [19]): 100
Barnyardgrass plant response rating (barnyardgrass; [16]): 20
Barnyardgrass plant response rating (barnyardgrass; [21]): 50
Plant response rating, Morningglory (morningglory; [1]): 15
Plant response rating (0 = no effect, 100 = complete control), Morningglory (morningglory; 125 g ai/ha, preemergence): 25
Plant response rating, Morningglory (morningglory; [3]): 100
Plant response rating, Bermudagrass (bermudagrass; [9]): 100
Plant response rating (0 = no effect, 100 = complete control), Bermudagrass (bermudagrass; 125 g ai/ha, preemergence): 100
Plant response rating, Bermudagrass (bermudagrass; [2]): 100
Plant response rating, Bermudagrass (bermudagrass; [3]): 100
Plant response rating, Pigweed (pigweed; [1]): 100
Plant response rating (0 = no effect, 100 = complete control), Pigweed (pigweed; 125 g ai/ha, preemergence): 100
Plant response rating, Pigweed (pigweed; [3]): 100

CCNC(=S)c1cccc(NC(=O)c2nn(C(C)(C)C)nc2C)c1 [Compound 420]
Plant response rating, Surinam Grass (Surinam grass; [1]): 10
Plant response rating (0 = no effect, 100 = complete control), Surinam Grass (Surinam grass; 125 g ai/ha, preemergence): 20
Plant response rating, Surinam Grass (Surinam grass; [3]): 95
Plant response rating (0 to 100 scale), Cocklebur (cocklebur; [19]): 0
Cocklebur plant response rating (cocklebur; [21]): 40
Cocklebur plant response rating (cocklebur; [14]): 10
Plant response rating (0 to 100 scale), Barnyardgrass (barnyardgrass; [19]): 90
Barnyardgrass plant response rating (barnyardgrass; [16]): 20
Barnyardgrass plant response rating (barnyardgrass; [21]): 50
Plant response rating, Morningglory (morningglory; [1]): 10
Plant response rating (0 = no effect, 100 = complete control), Morningglory (morningglory; 125 g ai/ha, preemergence): 55
Plant response rating, Morningglory (morningglory; [3]): 100
Plant response rating, Bermudagrass (bermudagrass; [9]): 100
Plant response rating (0 = no effect, 100 = complete control), Bermudagrass (bermudagrass; 125 g ai/ha, preemergence): 100
Plant response rating, Bermudagrass (bermudagrass; [2]): 100
Plant response rating, Bermudagrass (bermudagrass; [3]): 100
Plant response rating, Pigweed (pigweed; [1]): 100
Plant response rating (0 = no effect, 100 = complete control), Pigweed (pigweed; 125 g ai/ha, preemergence): 100
Plant response rating, Pigweed (pigweed; [3]): 100
